Results from patent publication US6979681B2, “Half-sandwich ruthenium (II) compounds comprising nitrogen containing ligands for treatment of cancer” (University Court, The University of Edinburgh, priority 1999, dated 2005).

system: A2780 ovarian cancer cell line; test: Cell growth inhibition of Ru compounds on A2780 ovarian cancer cell line (24-well trays, Coulter counter); format: cell-based; conditions: 24 hours drug exposure, further 3 days growth, cell count
Protocol: The compounds are tested on 24-well trays. Cells growing in a flask are harvested just before they become confluent, counted using a haemocytometer and diluted down with media to a concentration of 1×10^4 cells per ml. The cells are then seeded in the 24-well trays at a density of 1×10^4 cells per well (i.e. 1 ml of the diluted cell suspension is added to each well). The cells are then left to plate down and grow for 72 hours before adding the compounds of the invention.
The Ru complexes are weighed out and made up to a concentration of 1 mg/ml with deionised water then sonicated until they go into solution. The appropriate volume of the Ru solution is added to 5 ml of media to make it up to a concentration of 100 μM for each drug. This 100 μM solution is then serially diluted to make up the 10 μM, 1 μM and 0.1 μM solutions.
The media is removed from the cells and replaced with 1 ml of the media dosed with drug. Each concentration is done in duplicate. A set of control wells are left on each plate, containing media without drug.
The cells are left exposed to the drugs for 24 hours and then washed with phosphate buffered saline before fresh media is added.
They are allowed to grow on for a further 3 days before being counted using a Coulter counter.
Preparing cells for counting:
Media is removed and 1 ml of PBS is added to the cells.
250 μl of trypsin is added and cells left in incubator for a few minutes to allow the monolayers to detach.
Once trypsinised, 250 μl of media is added to each well to neutralise the trypsin. 200 μl of this suspension is added to 10 ml of NaCl for counting.
Using the above protocol, a number of compounds of the invention were tested on A2780 ovarian cancer cell line.

Row | Compound | IC50 [µM]
1 | [(η^6-p-cymene)RuCl(CH3CN)2]^+[PF6]^− [Example 1] | 7
2 | [(η^6-p-cymene)RuCl(H2NCH2CH2NH2—N,N)]^+[PF6]^− [Example 5] | 8
3 | F[P-](F)(F)(F)(F)F.[Cl][Ru-]1[NH2+]CC[NH2+]1.c1ccc(-c2ccccc2)cc1 [Example 9, [(η^6-C6H5C6H5)RuCl(H2NCH2CH2NH2—N,N)]^+[PF6]^−] | 6
4 | [(η^6-p-cymene)RuI(H2NCH2CH2NH2—N, N)]^+[PF6]^− [Example 6] | 6
5 | COC(=O)c1ccccc1.F[P-](F)(F)(F)(F)F.[Cl][Ru-]1[NH2+]CC[NH2+]1 [Example 8, [η^6-C6H5CO2CH3)RuCl(H2NCH2CH2NH2—N,N)]^+[PF6]^−] | 55
6 | F[P-](F)(F)(F)(F)F.F[P-](F)(F)(F)(F)F.[Cl][Ru-]1[NH2+]CC[NH+]1CCCCCC[NH+]1CC[NH2+][Ru-]1[Cl].c1ccc(-c2ccccc2)cc1.c1ccc(-c2ccccc2)cc1 (centres unmarked) [Example 11, {[η^6-C6H5C6H5)RuCl]2[H2N(CH2)2NH(CH2)6NH(CH22NH2—N,N′,N″,N′″]}^2+2PF6^−] | 5
7 | CC[NH+]1CC[NH2+][Ru-]1[Cl].F[P-](F)(F)(F)(F)F.c1ccc(-c2ccccc2)cc1 [Example 10, {(η^6-C6H5C6H5)RuCl[H2N(CH2)2NH(CH2CH3)]}^+PF6^−] | 6
8 | F[P-](F)(F)(F)(F)F.[I][Ru-]1[NH2+]CC[NH2+]1.c1ccccc1 [Example 4, [(η^6-C6H6)RuI(H2NCH2CH2NH2—N,N)]^+[PF6]^−] | 20
9 | [(η^6-p-cymene)RuCl2(isonicotinamide)] [Example 7] | 11
10 | F[P-](F)(F)(F)(F)F.[Cl][Ru-]1[NH2+]CC[NH2+]1.c1ccccc1 [Example 3, [(η^6-C6H6)RuCl(H2NCH2CH2NH2—N,N)]^+[PF6]^−] | 8
11 | [(η^6-p-cymene)RuBr(CH3CN)2]^+[PF6]^− [Example 2] | 8
